Assay [1] addresses T1, Polyphosphate kinase 1 (PPK1) (Escherichia coli, UniProt P0A7B1).
T1 sequence (P0A7B1 2-688): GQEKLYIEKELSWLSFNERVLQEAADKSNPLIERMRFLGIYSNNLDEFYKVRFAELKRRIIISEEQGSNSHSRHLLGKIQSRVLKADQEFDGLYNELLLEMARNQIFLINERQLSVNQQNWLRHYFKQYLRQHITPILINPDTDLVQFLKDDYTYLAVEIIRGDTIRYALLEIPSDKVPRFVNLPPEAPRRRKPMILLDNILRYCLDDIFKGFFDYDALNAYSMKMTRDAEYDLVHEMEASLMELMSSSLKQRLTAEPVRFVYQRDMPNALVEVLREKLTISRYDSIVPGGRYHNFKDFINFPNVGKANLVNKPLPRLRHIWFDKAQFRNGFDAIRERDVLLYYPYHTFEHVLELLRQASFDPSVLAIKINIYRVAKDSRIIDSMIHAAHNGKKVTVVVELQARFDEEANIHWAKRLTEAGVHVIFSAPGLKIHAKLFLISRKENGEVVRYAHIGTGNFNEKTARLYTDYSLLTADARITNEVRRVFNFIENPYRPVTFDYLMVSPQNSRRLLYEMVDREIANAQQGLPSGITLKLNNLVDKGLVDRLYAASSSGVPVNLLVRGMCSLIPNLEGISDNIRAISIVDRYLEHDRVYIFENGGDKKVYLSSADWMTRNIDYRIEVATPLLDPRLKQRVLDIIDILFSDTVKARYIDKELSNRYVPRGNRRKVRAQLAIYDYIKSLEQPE
The assay is described as follows: SPR. The class given is binding.

Assay [2] concerns the target T1, Polyphosphate kinase 1 (PPK1). In words: SPR single-concentration response at […]. The class given is binding.

The source of these data is publication PMC7301697 (Journal of Enzyme Inhibition and Medicinal Chemistry, 2020).

What is called Kd is the concentration at which binding is half-saturated. Lower therefore signals tighter binding. In assay [1], `Cc1ccc(C(=O)Nc2ccc(Cl)cc2)cc1C(F)(F)F` [compound 17, 17] gave a Kd of 84.6 µM.

For the compound `COc1cc([C@@H]2c3cc4c(cc3[C@@H](O[C@@H]3O[C@@H]5CO[C@@H](C)O[C@H]5[C@H](O)[C@H]3O)[C@H]3COC(=O)[C@H]23)OCO4)cc(OC)c1O` [Etoposide], in assay [2], the “SPR single-concentration response at 100 μM (positive control)” value is listed as 3.06 100RU/Da.

For the compound `O=[N+]([O-])c1ccc2nc(-c3ccc(Cl)cc3)[nH]c2c1` [compound 8, 8], in assay [1], the Kd is 85.8 µM.
